Results as given in patent EP0563686A1, “Utilization of 3 substituted amino isoxazole derivatives against endoparasites, new 3 substituted amino isoxazols and process for their preparation” (BAYER AG, priority 1992, dated 1993).

Experiments:
[1] = system: Trichostrongylus colubriformis; assay: In vivo nematode test, Trichostrongylus colubriformis / sheep (faecal worm egg count before and after treatment); set-up: species or system Schaf; details: experimentally infected sheep, treated after prepatency, pure active in gelatin capsules, oral, dose giving complete cessation of egg excretion, read-out: Dosis effectiva
Source text: Trichostrongylus colubriformis / Schaf
Experimentell mit Trichostrongylus colubriformis infizierte Schafe wurden nach Ablauf der Präpatenzzeit des Parasiten behandelt. Die Wirkstoffe wurden als reiner Wirkstoff in Gelatinekapseln oral appliziert.
(§1) Der Wirkungsgrad wird dadurch bestimmt, daß man die mit dem Kot ausgeschiedenen Wurmeier vor und nach der Behandlung quantitativ auszählt.
Ein völliges Sistieren der Eiausscheidung nach der Behandlung bedeutet, daß die Würmer abgetrieben wurden oder so geschädigt sind, daß sie keine Eier mehr produzieren (Dosis effectiva).
(§2) Geprüfte Wirkstoffe und wirksame Dosierungen (Dosis effectiva) sind aus der nachfolgenden Tabelle ersichtlich.

Haemonchus contortus = assay: In vivo nematode test, Haemonchus contortus / sheep (faecal worm egg count before and after treatment); set-up: species or system Schaf; details: experimentally infected sheep, treated after prepatency, pure active in gelatin capsules, oral, dose giving complete cessation of egg excretion, read-out: Dosis effectiva
Source text: Haemonchus contortus / Schaf
Experimentell mit Haemonchus contortus infizierte Schafe wurden nach Ablauf der Präpatenzzeit des Parasiten behandelt. Die Wirkstoffe wurden als reiner Wirkstoff in Gelatinekapseln oral appliziert.
as §1
Ein völliges Sistieren der Eiausscheidung nach der Behandlung bedeutet, daß die Wärmer abgetrieben wurden oder so geschädigt sind, daß sie keine Eier mehr produzieren (Dosis effectiva).
as §2

In the case of CCNc1cc(-c2ccc(OC)cc2)on1 [Beispiel 4, 3-Ethylamino-5-(4-methoxyphenyl)-isoxazol], the minimal effective dose [1] is reported as 10 mg/kg and the minimal effective dose (Haemonchus contortus) is reported as 10 mg/kg.

For COc1ccc(-c2cc(NC3CC3)no2)cc1 [Beispiel 6], the minimal effective dose [1] was 10 mg/kg and the minimal effective dose (Haemonchus contortus) was 10 mg/kg.

For COc1ccc(-c2cc(NCC3CC3)no2)cc1 [Beispiel 10], the minimal effective dose [1] was 10 mg/kg and the minimal effective dose (Haemonchus contortus) was 10 mg/kg.

With COc1ccc(-c2cc(NCCc3ccccc3)no2)cc1 [Beispiel 13] the minimal effective dose (Haemonchus contortus) was 10 mg/kg.

Compound CCNc1cc(-c2ccc(SC(F)(F)F)cc2)on1 [Beispiel 22] has a minimal effective dose [1] of 10 mg/kg and a minimal effective dose (Haemonchus contortus) of 10 mg/kg.

Brc1ccc(-c2cc(NC3CCCCC3)no2)cc1 [Beispiel 43] showed a minimal effective dose (Haemonchus contortus) of 10 mg/kg.

In the case of CCNc1cc(-c2cccnc2)on1 [Beispiel 57], the minimal effective dose [1] is reported as 10 mg/kg and the minimal effective dose (Haemonchus contortus) is reported as 10 mg/kg.

For CCNc1cc(-c2ccsc2)on1 [Beispiel 63], the minimal effective dose [1] was 10 mg/kg.
